{"source": "patent US7919531B2", "about": "“3,5-dihydroxy-2,4-cyclohexadienones and their derivatives, dietary compositions and fortified food containing them and their uses” (DSM IP Assets B.V., priority 2006, dated 2011)", "key": {"[1]": {"biological_target": "T1, human serotonin re-uptake transporter (hSERT) (Homo sapiens, UniProt P31645)", "T1 construct": "host or cells: HEK-293", "T1 sequence (P31645 whole entry)": "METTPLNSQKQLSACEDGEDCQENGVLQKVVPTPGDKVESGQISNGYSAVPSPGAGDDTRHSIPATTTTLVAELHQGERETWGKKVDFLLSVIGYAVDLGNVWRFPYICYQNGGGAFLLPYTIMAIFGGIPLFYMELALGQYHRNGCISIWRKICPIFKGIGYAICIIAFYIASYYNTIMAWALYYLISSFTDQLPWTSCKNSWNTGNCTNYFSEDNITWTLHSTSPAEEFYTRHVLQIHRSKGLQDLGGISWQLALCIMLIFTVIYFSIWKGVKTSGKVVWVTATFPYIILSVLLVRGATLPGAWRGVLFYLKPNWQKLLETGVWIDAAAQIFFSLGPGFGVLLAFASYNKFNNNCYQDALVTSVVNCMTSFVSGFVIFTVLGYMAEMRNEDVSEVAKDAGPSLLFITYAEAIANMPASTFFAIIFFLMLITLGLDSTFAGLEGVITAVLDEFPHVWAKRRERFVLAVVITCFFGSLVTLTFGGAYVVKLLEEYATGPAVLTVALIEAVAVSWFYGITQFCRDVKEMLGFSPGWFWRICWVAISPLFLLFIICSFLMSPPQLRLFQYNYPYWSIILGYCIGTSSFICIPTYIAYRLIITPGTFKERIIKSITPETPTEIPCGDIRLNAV", "experiment": "Serotonin uptake inhibition in HEK-293 cells expressing hSERT", "format": "cell-based", "settings": "for Effect on serotonin re-uptake (hSERT dependent uptake of tritiated serotonin into transfected cells): result in words; for Ki: transfected HEK-293 cells, Ki from measured IC50 by Cheng-Prusoff, average +/− s.e.m. of two experiments, read-out: Inhibition constant Ki for tritiated serotonin uptake", "excerpt": "HEK-293 cells stably expressing the human serotonin re-uptake transporter (hSERT) were obtained from R. Blakely, Vanderbilt University, USA. The cells were routinely grown in Dulbeco's Modified Eagles Medium (Bioconcept) containing 10% fetal calf serum, penicillin, streptomycin, L-glutamine and the antibiotic G418 and passaged by trypsinisation. On the day of assay, cells from 80% confluent flasks were harvested by gentle washing with warm phosphate buffered saline (PBS). Cells were then washed once by centrifugation and re-suspended in Krebs Ringers bicarbonate buffer (Sigma) supplemented with 35 μM pargyline, 2.2 mM CaCl2, 1 mM ascorbic acid and 5 mM N-2-hydroxyethylpiperazine-N′-2-ethanesulfonic acid (buffer called “Hepes”) at a concentration of 10,000 cells in 160 ul of buffer, and aliquoted into round bottomed polypropylene 96 well microtitre plates (Corning) at 10,000 cells per well. Serotonin uptake into the cells was determined by addition of radio-labeled (3H) serotonin (GE Healthcare) to a concentration of 20 nM, and incubation for 40 minutes at 37° C. with gentle shaking. At the end of this time unincorporated label was removed by filtration though Unifilter 96 GF/B plates (Perkin Elmer) using a Tomtec Mach III M cell harvester. The incorporated serotonin retained on the plates was quantified by liquid scintillation counting using Microscint-40/Topcount (Perkin Elmer).\nThe effect of (−)-humulone and lupulone on the serotonin uptake was determined by their inclusion in the assay at a range of concentrations between 0.03 and 100 μM for 10 minutes prior to and during the addition of (3H) serotonin. Serotonin uptake via the transporter was inhibited by (−)-humulone and lupulone, respectively, in a dose dependent manner.\nThe calculated inhibition constants Ki, derived from the measured IC50 using the Cheng-Prusoff equation (Y. C. Cheng, W. H. Prusoff, Biochem. Pharmacol. 1973, 22, p. 3099-3108), for inhibition of serotonin uptake by (−)-humulone and lupulone are shown in Table 1."}, "[2]": {"test_system": "mouse", "experiment": "Primary observation (Irwin) test in the mouse", "format": "in vivo", "settings": "30 mg/kg i.p., 5 mice per group", "excerpt": "The method, which detects the first toxic dose, the active dose-range and the principal effects of a test substance on behaviour and physiological function, follows that described by Irwin (Irwin S. Comprehensive observational assessment: A systematic quantitative procedure for assessing the behavioural and physiologic state of the mouse. Psychopharmacologia, 1968, 13, 222-257).\n3 treated groups were compared with the same control at any one time. All animals within a treatment group were observed simultaneously.\nBehavioural modifications, physiological and neurotoxicity symptoms, pupil diameter and rectal temperature were recorded according to a standardized observation grid derived from that of Irwin. The grid contains the following items: lethality*, convulsions*, tremor*, Straub*, sedation, excitation, abnormal gait* (rolling, tip-toe), jumps*, motor incoordination*, writhes*, piloerection*, stereotypies* (sniffing, chewing, head movements), head twitches*, scratching*, respiration*, aggressiveness*, fear, reactivity to touch, muscle tone, loss of righting reflex, ptosis, exopthalmos, loss of grasping, akinesia, catalepsy, loss of traction, loss of corneal reflex, analgesia, defecation, salivation, lacrimation, pupil diameter (Unit=1/45 mm) and rectal temperature.\nObservations were performed 15, 30, 60, 120 and 180 minutes after administration of the test substance ((−)-humulone) and also 24 hours later. The symptoms marked (*) were observed continuously from 0 to 15 minutes after administration. 5 mice were studied per group.\n(−)-Humulone was solubilized in physiological saline and injected into mice intraperitoneally."}, "[3]": {"test_system": "mouse", "experiment": "Marble burying test in the mouse", "format": "in vivo", "settings": "for Number of marbles covered by sawdust, mean ± s.e.m.: vehicle 20.1 ± 1.7", "excerpt": "The method applied here follows that described by Broekkamp et al. (European Journal of Pharmacology 1986, 126, 223-229.). Mice (n=15 per treatment group) were individually placed in transparent plastic cages (33×21×18 cm) with 5 cm of sawdust on the floor and 25 marbles (diameter 1 cm) grouped in the centre of the cage. A second, up-turned, cage served as a lid. The number of marbles covered by sawdust (by at least two-thirds) was counted at the end of the 30-minute test period. Tests were performed by investigators blind to the drug treatment protocol.\nPrior to testing, all test cages and marbles were “impregnated” by leaving 10 naive mice in each cage for 15 minutes.\n(−)-Humulone was solubilized in physiological saline. The control substance fluoxetine (Prozac®) (Lilly), batches n^o A069667 and A058238) was dispersed in 0.2% hydroxypropylmethylcellulose (HPMC) in physiological saline.\n(−)-Humulone was evaluated at 3, 10 and 30 mg/kg, administered i.p. 30 minutes before the test, and compared with a vehicle control group. Fluoxetine (32 mg/kg), administered under the same experimental conditions, was used as a reference substance.\nData were analysed by comparing treated groups with vehicle control using unpaired Student's t-tests."}, "[4]": {"test_system": "mouse", "experiment": "Light dark box test in the mouse after subchronic oral gavage", "format": "in vivo", "settings": "for Number of crossings, mean ± sem / Time spent in light compartment, mean ± sem: 5 h and 1 h before test; for Number of crossings, mean ± sem: vehicle 6.5 ± 1.0; for Time spent in light compartment, mean ± sem: vehicle 64.4 ± 4.7; for Number of crossings, % change / Time spent in light compartment, % change: versus vehicle control", "excerpt": "The method, which detects anxiolytic activity, follows that described by Crawley (Pharmacol. Biochem. Behav. 1981, 15, 695-699). Anxiolytics increase the time spent in the light compartment.\nAnimals were placed into the light compartment of a 2-compartment box with one half light and open (25×27×27 cm) and the other half dark and closed (20×27×27 cm). The time spent in each compartment as well as the number of times the animal crosses from one side to the other is scored during a 3-minute test. 15 mice were studied per group. The test was performed blind. […]\nClobazam (32 mg/kg orally), administered 1 hour before the test, will be used as reference substance. Mice in this group received additional administrations of vehicle at 25 and 5 hours before the test in order to maintain experimental blinding."}, "[5]": {"settings": "50 mg/kg p.o., listed as (−)-Humulone"}}, "data": [{"compound": "6-hydroxycolupulone [compound 5, reference compound]", "values": [{"measurement": "Effect on serotonin re-uptake (hSERT dependent uptake of tritiated serotonin into transfected cells)", "setting": "[1]", "result": "no effect"}]}, {"compound": "6-hydroxylupulone [compound 4, reference compound]", "values": [{"measurement": "Effect on serotonin re-uptake (hSERT dependent uptake of tritiated serotonin into transfected cells)", "setting": "[1]", "result": "no effect"}]}, {"compound": "CC(C)=CCC1C(=O)C(C(=O)CC(C)C)=C(O)C(O)(CC=C(C)C)C1=O", "note": "(single isomer, unassigned; (-)) [(−)-humulone]", "values": [{"measurement": "Ki", "setting": "[1]", "result": 16.9, "unit": "µM"}, {"measurement": "Decreased fear, number of mice", "setting": "[2]; at 30 minutes", "result": 3, "unit": "mice"}, {"measurement": "Decreased muscle tone, number of mice", "setting": "[2]; at 30 minutes", "result": 4, "unit": "mice"}, {"measurement": "Decreased fear, number of mice", "setting": "[2]; at 60 minutes", "result": 1, "unit": "mouse"}, {"measurement": "Decreased muscle tone, number of mice", "setting": "[2]; at 60 minutes", "result": 1, "unit": "mouse"}, {"measurement": "Number of marbles covered by sawdust, % change from control", "setting": "[3]; 3 mg/kg i.p. −30 min", "result": "−9", "unit": "%"}, {"measurement": "Number of marbles covered by sawdust, mean ± s.e.m.", "setting": "[3]; 3 mg/kg i.p. −30 min", "result": "18.3 ± 1.7 (NS)"}, {"measurement": "Number of marbles covered by sawdust, % change from control", "setting": "[3]; 10 mg/kg i.p. −30 min", "result": "−13", "unit": "%"}, {"measurement": "Number of marbles covered by sawdust, mean ± s.e.m.", "setting": "[3]; 10 mg/kg i.p. −30 min", "result": "17.5 ± 2.0 (NS)"}, {"measurement": "Number of marbles covered by sawdust, % change from control", "setting": "[3]; 30 mg/kg i.p. −30 min", "result": "−81", "unit": "%"}, {"measurement": "Number of marbles covered by sawdust, mean ± s.e.m.", "setting": "[3]; 30 mg/kg i.p. −30 min", "result": "3.8 ± 1.5 (***)"}, {"measurement": "Number of crossings, mean ± sem", "setting": "[4]; 50 mg/kg p.o. -24 h", "result": "13.7 ± 1.3"}, {"measurement": "Time spent in light compartment, mean ± sem", "setting": "[4]; 50 mg/kg p.o. -24 h", "result": "95.4 ± 3.8", "unit": "s"}, {"measurement": "Number of crossings, % change", "setting": "[4]; 50 mg/kg p.o.", "result": "+111%"}, {"measurement": "Time spent in light compartment, % change", "setting": "[4]; 50 mg/kg p.o.", "result": "+48%"}, {"measurement": "Number of crossings, % change", "setting": "[4]; [5]", "result": "+111%"}, {"measurement": "Time spent in light compartment, % change", "setting": "[4]; [5]", "result": "+48%"}, {"measurement": "Number of crossings, mean ± sem", "setting": "[4]; 100 mg/kg p.o. -24 h", "result": "7.9 ± 1.0"}, {"measurement": "Time spent in light compartment, mean ± sem", "setting": "[4]; 100 mg/kg p.o. -24 h", "result": "86.4 ± 8.9", "unit": "s"}, {"measurement": "Number of crossings, % change", "setting": "[4]; 100 mg/kg p.o.", "result": "+22%"}, {"measurement": "Time spent in light compartment, % change", "setting": "[4]; 100 mg/kg p.o.", "result": "+34%"}, {"measurement": "Time spent in light compartment, % change", "setting": "[4]; 100 mg/kg p.o., listed as (−)-Humulone", "result": "+34%"}, {"measurement": "Number of crossings, mean ± sem", "setting": "[4]; 200 mg/kg p.o. -24 h", "result": "8.3 ± 1.2"}, {"measurement": "Time spent in light compartment, mean ± sem", "setting": "[4]; 200 mg/kg p.o. -24 h", "result": "71.5 ± 8.8", "unit": "s"}, {"measurement": "Number of crossings, % change", "setting": "[4]; 200 mg/kg p.o.", "result": "+28%"}, {"measurement": "Time spent in light compartment, % change", "setting": "[4]; 200 mg/kg p.o.", "result": "+11%"}, {"measurement": "Time spent in light compartment, % change", "setting": "[4]; 200 mg/kg p.o., listed as (−)-Humulone", "result": "+11%"}]}, {"compound": "CNCCC(Oc1ccc(C(F)(F)F)cc1)c1ccccc1", "note": "(stereo not shown) [FLUOXETINE, fluoxetine, reference compound]", "values": [{"measurement": "Number of marbles covered by sawdust, % change from control", "setting": "[3]; 32 mg/kg i.p. −30 min", "result": "−91", "unit": "%"}, {"measurement": "Number of marbles covered by sawdust, mean ± s.e.m.", "setting": "[3]; 32 mg/kg i.p. −30 min", "result": "1.9 ± 1.0 (***)"}]}, {"compound": "CC(C)=CCC1=C(O)C(C(=O)CC(C)C)=C(O)C(CC=C(C)C)(CC=C(C)C)C1=O", "note": "[Lupulone, lupulone]", "values": [{"measurement": "Effect on serotonin re-uptake (hSERT dependent uptake of tritiated serotonin into transfected cells)", "setting": "[1]", "result": "inhibited"}, {"measurement": "Ki", "setting": "[1]", "result": 6, "unit": "µM"}]}, {"compound": "CC(C)=CCC(=O)C1(O)C(O)=C(C(=O)CC(C)C)C(=O)C1CC=C(C)C", "note": "(stereo not shown) [compound 3, isohumulone, reference compound]", "values": [{"measurement": "Effect on serotonin re-uptake (hSERT dependent uptake of tritiated serotonin into transfected cells)", "setting": "[1]", "result": "no effect"}]}]}
